Measurements taken from US12435087B2, “Modulators of DCN-1 and methods of use thereof” (Cellarity, Inc., priority 2023, dated 2025).
Where two headings read alike, the source gives them in different places.

Target: DCN1 (DCUND1) protein PONY domain (Homo sapiens (Human), UniProt Q96GG9)
Assay: TR-FRET assay (binding to DCN-1, displacement of FAM-labeled probe)
In short: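 Compounds read at 1, 5 and 24 h, 0.1% final DMSO, by TR-FRET between terbium-streptavidin on biotinylated DCN1 PONY domain (E. coli) and a FAM-tagged non-covalent inhibitor probe. Two setups used, 5 nM protein with 20 nM labelled probe, or 0.31 nM protein with 100 nM labelled plus 800 nM unlabelled probe; buffer had TritonX and 200 mM NaCl. % activity relative to high (with probe) and low (without probe) controls.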

[1] = 24 hr after treatment with compound, read-out: TR FRET IC50 24 hr
[2] = read-out: TR FRET IC50 1 hr, 1 hr after treatment with compound
[3] = TR FRET IC50 1 hr (nM), 1 hr after treatment with compound

Sequence of DCN1 (DCUND1) protein PONY domain (Q96GG9 60-248): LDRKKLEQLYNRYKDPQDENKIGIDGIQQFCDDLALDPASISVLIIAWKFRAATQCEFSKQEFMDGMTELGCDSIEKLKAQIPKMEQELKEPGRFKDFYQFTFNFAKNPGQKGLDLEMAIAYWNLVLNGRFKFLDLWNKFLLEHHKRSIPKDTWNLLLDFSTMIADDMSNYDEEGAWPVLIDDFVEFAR

SMILES | IC50 [1] [nM] | IC50 [2] [nM] | IC50 [3] [nM]
C=C(CN1CC2CC(C1)O2)C(=O)NCc1cccc([C@@H]2c3cnn(-c4ccccc4)c3N(CC)C(=O)[C@H]2NC(=O)c2nccc(C(F)(F)F)n2)c1 [Compound I-346] | ≤ 200 | ≤ 200 | –
C=C(CN1CC2CCC(C1)O2)C(=O)NCc1cccc([C@@H]2c3cnn(-c4ccccc4)c3N(CC)C(=O)[C@H]2NC(=O)c2ccn(C(F)(F)F)n2)c1 [Compound I-347] | ≤ 200 | ≤ 200 | –
CCN1C(=O)[C@@H](NC(=O)c2cccc(C(F)(F)F)c2)[C@H](c2cccc(CNC(=O)C3=CCN(C)C3)n2)c2cnn(-c3ccccc3)c21 [Compound I-348] | 1000 to 3000 | – | 1000 to 3000
C=C(CN(C)C1COC1)C(=O)NCc1cccc([C@H]2c3c(C)nn(-c4ccccc4)c3N(CC)C(=O)[C@@H]2NC(=O)c2cccc(C(F)(F)F)c2)c1 [Compound I-349] | 200 to 1000 | – | 1000 to 3000
C=C(CN1CCOCC1)C(=O)NCc1cccc([C@@H]2c3cnn(-c4ccccc4)c3N(CC)C(=O)[C@H]2NC(=O)c2ccn(CC)n2)c1 [Compound I-351] | ≤ 200 | – | 200 to 1000
C=C(C(=O)NCc1cccc([C@@H]2c3cnn(-c4ccccc4)c3N(CC)C(=O)[C@H]2NC(=O)c2csc(C(F)(F)F)n2)c1)C(C(C)C)N(C)C1COC1 (stereo partly shown) [Compound I-352] | ≤ 200 | ≤ 200 | –
C=C(CN1CCN(C2COC2)CC1)C(=O)NCc1cccc([C@@H]2c3c(C)nn(-c4ccccc4)c3N(CC)C(=O)[C@H]2NC(=O)c2cccc(C(F)(F)F)c2)c1 [Compound I-353] | ≤ 200 | ≤ 200 | –
C=C(CN1CCN(C2COC2)CC1)C(=O)NCc1cccc([C@@H]2c3cnn(-c4ccccc4)c3N(CC)C(=O)[C@H]2NC(=O)c2nccc(C(F)(F)F)n2)n1 [Compound I-354] | 1000 to 3000 | – | 1000 to 3000
C=C(CN1CCN(C2COC2)CC1)C(=O)NCc1cccc([C@@H]2c3cnn(-c4ccccc4)c3N(CC)C(=O)[C@H]2NC(=O)c2ccn(C(F)(F)F)n2)c1 [Compound I-356] | ≤ 200 | ≤ 200 | –
C=C(CN1CCOCC1)C(=O)NCc1cccc([C@@H]2c3cnn(-c4ccccc4)c3N(CC)C(=O)[C@H]2NC(=O)c2ccn(CCF)n2)c1 [Compound I-357] | ≤ 200 | – | 200 to 1000
CCC(=O)NCc1cccc([C@@H]2c3cnn(-c4ccccc4)c3N(CC)C(=O)[C@H]2NC(=O)c2nccc(C(F)(F)F)n2)c1 [Compound I-358] | 1000 to 3000 | – | 1000 to 3000
CCN1C(=O)[C@@H](NC(=O)c2nccc(C(F)(F)F)n2)[C@H](c2cccc(CNC(=O)C(COC)CN3CCC(F)(F)C3)c2)c2cnn(-c3ccccc3)c21 (stereo partly shown) [Compound I-360] | 1000 to 3000 | – | 1000 to 3000
C=C(CN1CC(C)(O)C1)C(=O)NCc1cccc([C@@H]2c3cnn(-c4ccccc4)c3N(CC)C(=O)[C@H]2NC(=O)c2cccc(C(F)(F)F)c2)c1 [Compound I-361] | ≤ 200 | ≤ 200 | –
CCN1C(=O)[C@H](NC(=O)c2cccc(C(F)(F)F)c2)[C@@H](c2cccc(CNC(=O)C3=CCN(C)C3)c2)c2c(C)nn(-c3ccccc3)c21 [Compound I-362, N-(3-((4S,5R)-7-ethyl-3-methyl-6-oxo-1-phenyl-5-(3-(trifluoromethyl)benzamido)-4,5,6,7-tetrahydro-1H-pyrazolo[3,4-b]pyridin-4-yl)benzyl)-1-methyl-2,5-dihydro-1H-pyrrole-3-carboxamide] | 1000 to 3000 | – | 1000 to 3000
C/C=C(\CN1CCOCC1)C(=O)NCc1cccc([C@@H]2c3cnn(-c4ccccc4)c3N(CC)C(=O)[C@H]2NC(=O)c2nccc(C(F)(F)F)n2)c1 [Compound I-363] | ≤ 200 | – | 200 to 1000
C=C(CN1CCOCC1)C(=O)NCc1cccc([C@@H]2c3cnn(-c4ccccc4)c3N(CC)C(=O)[C@H]2NC(=O)c2ccn(CC(F)F)n2)c1 [Compound I-364] | ≤ 200 | – | 200 to 1000
C/C=C(\CN(C)C1COC1)C(=O)NCc1cccc([C@@H]2c3cnn(-c4ccccc4)c3N(CC)C(=O)[C@H]2NC(=O)c2csc(C(F)(F)F)n2)c1 [Compound I-365] | ≤ 200 | – | 200 to 1000
C/C=C(\CN1CCC1)C(=O)Nc1cccc([C@@H]2c3cnn(-c4ccccc4)c3N(CC)C(=O)[C@H]2NC(=O)c2nccc(C(F)(F)F)n2)c1 [Compound I-367] | ≤ 200 | – | 1000 to 3000
C/C=C(\CN1CCC(F)(F)C1)C(=O)Nc1cccc([C@@H]2c3cnn(-c4ccccc4)c3N(CC)C(=O)[C@H]2NC(=O)c2nccc(C(F)(F)F)n2)c1 [Compound I-368] | ≤ 200 | – | 1000 to 3000
C/C=C(/CN1CCN(C2COC2)CC1)C(=O)N(C)c1cccc([C@@H]2c3cnn(-c4ccccc4)c3N(CC)C(=O)[C@H]2NC(=O)c2csc(C(F)(F)F)n2)c1 [Compound I-369] | 1000 to 3000 | – | 1000 to 3000
C=C(CN1CCC12COC2)C(=O)N(C)Cc1cccc([C@@H]2c3cnn(-c4ccccc4)c3N(CC)C(=O)[C@H]2NC(=O)c2ccn(C(F)(F)F)n2)c1 [Compound I-371] | 200 to 1000 | – | 1000 to 3000
CCN1C(=O)[C@@H](NC(=O)c2cccc(C(F)(F)F)c2)[C@H](c2cccc(CNC/C=C/C(=O)N(C)C)c2)c2cnn(-c3ccccc3)c21 [Compound I-372] | 200 to 1000 | – | 1000 to 3000
C=C(CN1CCC12COC2)C(=O)N(C)Cc1cccc([C@@H]2c3cnn(-c4ccccc4)c3N(CC)C(=O)[C@H]2NC(=O)c2ccn(C3CC3)n2)c1 [Compound I-373] | ≤ 200 | – | 200 to 1000
C=C(CN1CCC1)C(=O)NCc1cccc([C@H]2c3c(C)nn(-c4ccccc4)c3N(CC)C(=O)[C@@H]2NC(=O)c2cccc(C(F)(F)F)c2)c1 [Compound I-374] | 200 to 1000 | – | 200 to 1000
C=C(CN1CC2(CCC2O)C1)C(=O)NCc1cccc([C@@H]2c3cnn(-c4ccccc4)c3N(CC)C(=O)[C@H]2NC(=O)c2cccc(C(F)(F)F)c2)c1 (stereo partly shown) [Compound I-375] | ≤ 200 | ≤ 200 | –
C=C(C(=O)NCc1cccc([C@@H]2c3cnn(-c4ccccc4)c3N(CC)C(=O)[C@@H]2NC(=O)c2nccc(C(F)(F)F)n2)c1)C(C)N1CC2(COC2)C1 (stereo partly drawn) [Compound I-377, N-((4R,5R)-7-ethyl-4-(3-((2-methylene-3-(2-oxa-6-azaspiro[3.3]heptan-6-yl)butanamido)methyl)phenyl)-6-oxo-1-phenyl-4,5,6,7-tetrahydro-1H-pyrazolo[3,4-b]pyridin-5-yl)-4-(trifluoromethyl)pyrimidine-2-carboxamide] | 200 to 1000 | – | 1000 to 3000
C/C=C(/CN1CCOCC1)C(=O)NCc1cccc([C@@H]2c3cnn(-c4ccccc4)c3N(CC)C(=O)[C@H]2NC(=O)c2ccn(C3CC3)n2)c1 [Compound I-381] | 1000 to 3000 | – | 1000 to 3000
C/C=C(\CN(C)C1COC1)C(=O)Nc1cccc([C@@H]2c3cnn(-c4ccccc4)c3N(CC)C(=O)[C@H]2NC(=O)c2nccc(C(F)(F)F)n2)c1 [Compound I-384] | ≤ 200 | – | 200 to 1000
C/C=C(/C(=O)Nc1cccc([C@@H]2c3cnn(-c4ccccc4)c3N(CC)C(=O)[C@H]2NC(=O)c2nccc(C(F)(F)F)n2)c1)C(C)N1CCC1 (stereo partly shown) [Compound I-385] | 1000 to 3000 | – | 1000 to 3000
